Reference: patent publication US8044103B2, “Cyclic dipeptides and azetidinone compounds and their use in treating CNS injury and neurodegenerative disorders” (Georgetown University, priority 1998, dated 2011)

Tests used:
[1] = system: head impact trauma in mice; settings: cited from earlier work
[2] = system: traumatic spinal cord injury in cats; settings: cited from earlier work
[3] = in vivo; cited from earlier work
[4] = system: cats subjected to brainstem compression; settings: cited from earlier work
[5] = system: rats following moderate fluid percussion injury; test: Mortality after moderate fluid percussion injury; format: in vivo, Male Sprague-Dawley rats; settings: 1 mg/kg i.v. 30 min following moderate fluid percussion injury; died before the end of the study; saline 21.4% and 37.5%
Protocol: Rats were anesthetized with sodium pentobarbital (70 mg/kg i.p.), intubated, and implanted with femoral venous and arterial catheters. Brain temperature was assessed indirectly through a thermister in the temporalis muscle. Body temperature was maintained through a feedback-controlled heating blanket. Blood pressure was continuously monitored, and arterial blood gases analyzed periodically. After the animal was placed in a stereotaxic frame, the scalp and temporal muscle were reflected, and a small craniotomy (5 mm) located midway between the lambda and bregma sutures over the left parietal cortex allowed insertion of a Leur-Loc that is cemented in place. The fluid-percussion head injury device, manufactured by the Medical College of Virginia, consists of a plexiglass cylindrical reservoir filled with isotonic saline; one end includes a transducer that is mounted and connected to a 5 mm tube that attaches through a male Leur-Loc fitting to the female Leur-Loc cemented at the time of surgery. A pendulum strikes a piston at the opposite end of the device, producing a pressure pulse of approximately 22 msec duration, leading to deformation of underlying brain. The degree of injury is related to the pressure pulse, expressed in atmospheres (atm): 2.6 atm in our laboratory produces a moderate injury with regard to neurological and histological deficit. Sham (control) animals undergo anesthesia and surgery without fluid percussion brain injury. […]
(§1) Continuous variables compared across groups were examined using an analysis of variance (ANOVA) followed by Bonferroni correction (rightin reflex). Continuous variables subjected to repeated measurements over a period of time (cardiovascular and core temperature measurements) were analyzed using a repeated measurements ANOVA followed by Tukey's pairwise comparison at each time point. Ordinal measurements (composite neurological scores) were evaluated using the non-parametric Kruskal-Wallis ANOVA with individual, non-parametric Mann-Whitney U-tests. […]

[6] = system: central facilitating activity; settings: cited from earlier work
[7] = system: fully conscious and unrestrained rats; test: Mean arterial blood pressure in conscious unrestrained rats (autonomic study); format: in vivo; settings: 1 mg/kg i.v., over the duration of testing
Excerpt: To assess autonomic responses to the novel TRH analogues, a separate group of rats were anesthetized with 4% isoflurane (1.5 L/min). Catheters were then placed into the right artoid artery and right jugular vein and exteriorized at the back of the neck. Rats were separated one per cage and allowed to recover from anesthesia. The exteriorized catheters were suspended above the rat to prevent biting. Mean […] blood pressure (MAP) was continuously recorded via a transducer connected directly to the arterial catheter for the duration of the study. At 1 h following catheter placement, rats were administered vehicle or drug via the catheter in the jugular vein as described below. […]
as §1

[8] = system: lightly anesthetized rats; test: Latency to recover righting reflex after light anesthesia (analeptic study); format: in vivo; settings: i.v., doses of 1 mg/kg and 10 mg/kg (FIG. 11); after 40 mg/kg i.p. sodium pentobarbitone
Protocol: (§2) Additional groups of uninjured rats were tested for autonomic and analeptic responses immediately prior to and up to 60 min. following drug administration. For the analeptic study, rats were first anesthetized with 40 mg/kg i.p. sodium pentabarbitone and placed onto an unheated pad on the laboratory bechtop at room temperature (22±2° C.). A thermister probe was placed in the rectum to measure core body temperature. After a 10 min. period, rats were administered vehicle or drug as described below via the tail vein. Time to recovery of the righting-reflex was subsequently determined while temperature was recorded at 5 min. intervals for all animals. […]
as §1

[9] = system: lightly anesthetized rats; test: Core body temperature in lightly anesthetized uninjured rats (analeptic study); format: in vivo; settings: 1 mg/kg i.v.; over 60 min following anesthesia; p<0.001 vs all other groups at 20-60 min
Protocol: as §2, §1

rats following trauma = settings: cited from earlier work
[10] = system: traumatic spinal cord injury; settings: in vivo; cited from earlier work
[11] = system: mice following controlled cortical impact injury (CCI); test: Beam walking task after controlled cortical impact injury (chronic neurological recovery); format: in vivo, Male C57Bl/6 mice; settings: 1 mg/kg following CCI injury; small group size (n=6)
Protocol: Male C57Bl/6 mice (20-25 g) were obtained from Taconic Farms (Germantown, N.Y.) and housed in an area directly adjoining surgical and behavioral rooms for at least 1 week prior to any procedures. All mice were maintained at a constant temperature (22±2° C.) and a 12 hr light/dark cycle, with lights on at 6 am and all behavioral testing performed during the light cycle. Food and water were available ad libitumn.
The injury device consisted of a microprocessor-controlled pneumatic impactor with a 3.5 mm diameter tip. The impactor is vertically mounted on a mill table (Sherline, USA) which allows for precise adjustment in the vertical plane above the mouse head, which itself is secured to a stereotaxic apparatus (David Kopf Instruments, CA) attached to the instrument. The core rod of a linear voltage differential transducer (LVDT, Serotec, USA) is attached to the lower end of the impactor to allow measurement of velocities between 3.0 and 9.0 m/s. Velocity of the impactor is controlled by fine tuning both positive and negative (back) air pressures. An oscilloscope (Tektronix, USA) records the time/displacement curve produced by the downward force on the LVDT, allowing precise measurement of the impactor velocity.
Surgical anesthesia was induced and maintained with 4% and 2% isoflurane respectively, using a flow rate of 1.0-1.5 l oxygen per minute. Depth of anesthesia was assessed by monitoring respiration rate and palpebral and pedal-withdrawal reflexes. The animal was then placed onto a heated pad and core body temperature was monitored and maintained at 38+/−0.2° C. The head was mounted in a stereotaxic frame and the surgical site clipped and prepared with a series of three Nolvasan scrubs followed by sterile saline rinses. A 10 mm mid-line incision was made over the skull, the skin and fascia reflected, and a 4 mm craniotomy made on the central aspect of the left parietal bone with a tissue punch (Roboz, USA). Great care was taken with the removal of the parietal bone to avoid injury to the underlying dura mater which was continuously bathed in sterile normal saline warmed to 37.5° C. The impounder tip of the pneumatic injury device was cleaned with a pad, soaked in absolute alcohol, positioned to the surface of the exposed dura and automatically withdrawn the 44 mm stroke distance. Following injury at a moderate (6.0 m/s velocity, 1 mm tissue deformation depth) level, the incision was closed with interrupted 6-0 silk sutures, anaesthesia was discontinued and the mouse was placed into a heated cage to maintain normothermia for 45 minutes post-injury. All animals were monitored carefully for at least 4 hours post-surgery and then daily. To minimize variation between animals due to anaesthesia during acute neurological testing, 20 minutes was allowed for surgery and 5 minutes for suturing for each animal.
Conscious mice were placed in a mouse restrainer and injected via the lateral tail vein with either normal saline (injured controls; n=6), 1 mg/kg Compound 2a (n=8), Compound 10b (n=6), Compound 11b (n=6) or Compound 14c (n=6) at 30 minutes following controlled cortical impact injury (CCI). The values for n represents the number of mice in the particular treatment group. The investigator was blinded to drug treatment both at the time of surgery and for neurological and behavioral scoring.
Chronic neurological recovery was evaluated for all animals using a beam walking task, a method which is particularly good at discriminating fine motor coordination differences between injured and sham-operated animals. The device consisted of a narrow wooden beam 6 mm wide and 120 mm in length which was suspended 300 mm above a 60 mm-thick foam rubber pad. The mouse was placed on one end of the beam and the number of footfaults for the right hindlimb recorded over 50 steps counted in either direction on the beam. A basal level of competence at this task was established before surgery with an acceptance level of <10 faults per 50 steps. […]

NC(=O)[C@@H]1CCCN1C(=O)[C@H](Cc1cnc[nH]1)NC(=O)[C@@H]1CCC(=O)N1 [TRH, L-pyroglutamyl-L-histidyl-L-prolinamide]
postconcussional behavioral suppression following head impact trauma [1]: shorten postconcussional behavioral suppression | neurological deficits after traumatic spinal cord injury [2]: reduces neurological deficits | plasma half-life [3]: 4 to 5 min | electrical activity and neurological recovery after brainstem compression [4]: improve electrical activity and neurological recovery

CC(C)(C)SC[C@@H]1NC(=O)[C@@H]2CCCN2C1=O [Compound 4a, Cyclo(t-Butyl-Cys-Pro)]
mortality rate [5]: 0%

NC(=O)[C@@H]1CCCN1C(=O)[C@H](Cc1cnc[nH]1)NC(=O)[C@@H]1CC(=O)N1 [YM-14673, N^α-[(S)-4-Oxo-Azetidine-2-Carbonyl]-L-Histidyl-L-Prolinamide]
duration of action relative to TRH (longer acting) [6]: 8-36 times | potency relative to TRH [6]: 10-100 times | mean arterial blood pressure (MAP) compared with vehicle / other groups [7]: significantly higher MAP | latency to recovery of righting reflex compared with saline [8]: significantly attenuated | core temperature maintained [9]: 37-38 °C | chronic neurological recovery following trauma (rats following trauma): improved chronic neurological recovery

O=C1NC2(CC2)C(=O)N2CCC[C@@H]12 [Compound 1a, Cyclo [(1-Amino-1-Cyclopropane-Carboxylic Acid)-Pro]]
mortality rate [5]: 28.6%

C[C@H]1SC[C@@H](C(=O)N[C@H](Cc2c[nH]cn2)C(=O)N2CCC[C@H]2C(N)=O)NC1=O [CG3703]
outcome following traumatic spinal cord injury [10]: improve outcome

CC1(C)CCN(C(=O)[C@H](Cc2cnc[nH]2)NC(=O)[C@@H]2CCC(=O)N2)[C@@H]1C(N)=O [RX-77368]
outcome following traumatic spinal cord injury [10]: ineffective

NC(=O)[C@@H]1CCCN1C(=O)C1(NC(=O)[C@@H]2CC(=O)N2)CCCCC1 [Compound 11b]
performance deficits in the beamwalking task compared with saline vehicle [11]: attenuated

NC(=O)[C@@H]1CCCN1C(=O)[C@H](Cc1cnc[nH]1)NC(=O)c1cc(=O)[nH]c(=O)[nH]1 [CG3509]
outcome following traumatic spinal cord injury [10]: improve outcome

NC(=O)[C@H]1CSCN1C(=O)[C@H](Cc1cnc[nH]1)NC(=O)[C@@H]1CCCC(=O)N1 [MK-771]
outcome following traumatic spinal cord injury [10]: ineffective

NC(=O)[C@@H]1CCCN1C(=O)C1(NC(=O)[C@@H]2CC(=O)N2)CC1 [Compound 10b, N^1-[1-[N—[(S)-4-Oxo-Azetidine-2-Carbonyl]Amino]Cyclopropane-Carbonyl]Prolinamide]
performance deficits in the beamwalking task compared with saline vehicle [11]: attenuated
